# Measurements reported in patent US12551451B2, “Compositions and methods for delivering molecules” (SunVax mRNA Therapeutics Inc., priority 2023, dated 2026).
# Key:
# [1] = LNP Characteristics (size, PDI, encapsulation efficiency) of LNPs formulated with novel ionizable lipids; format: physicochemical; conditions: LNP formulated with the ionizable lipid, DOPE, Cholesterol, DMG-PEG2000
# Description: LNPs formulated using the novel ionizable lipids of the disclosure or control ionizable lipids MC3 and SM-102 were synthesized by mixing the lipid components of the LNP in ethanol at a predetermined molar ratio (ionizable lipid/DOPE/Cholesterol/DMG-PEG2000=30/15/50/1.5) to prepare an organic phase. Sa-mRNA encoding firefly luciferase (LUC) or green fluorescent protein (GFP) was diluted in 50 mM citrate buffer (pH 4.5, Fisher) to prepare an aqueous phase. The sa-mRNA was stored at −80° C. and was thawed on ice prior to use. The ethanol and aqueous phases were mixed at a 1:3 ratio by pipette with the N/P=4.2/1. The resultant LNPs were purified by ultrafiltration (100,000 cut-off, MilliporeSigma™ Amicon™ Ultra-15 Centrifugal Filter Units) at 4° C. prior to transfection into a cell, such as a T-cell.
# LNPs formulated using novel ionizable lipids of the disclosure were synthesized using the procedure described in Example 2 and characterized. Table 4 below show the properties of each LNP formulated using a novel ionizable lipid of the disclosure.
# [2] = system: endogenous CD4, CD8, CD4/CD8 T cells and NK cells; experiment: In vivo transfection of T and NK cells with LNP-encapsulated modified mRNA encoding eGFP, FACS of splenocytes; parameters: species or system Balb/c mice; conditions: LNP delivering 10 mg modified mRNA encoding eGFP, intravenously, 18 hours after injection
# Description: (§1) LNP formulated using the ionizable lipids of the disclosure were used to deliver modified RNA encoding reporter genes to determine the transfection efficiency of exemplary ionizable lipids of the disclosure in immune cells and organs. Injections of mice with LNP-encapsulated modified mRNA encoding either Luciferases or eGFP were performed. In experiments with payloads encoding Luciferase mRNA, spleen expression was detected, which is an important organ with abundant pan T cells. In experiments with payloads encoding eGFP mRNA, transfection of primary T cells in vivo by FACS analysis was performed.
# Balb/c mice were intravenously injected with of 10 mg modified mRNA encoding eGFP. The modified mRNA encoding eGFP were delivered using LNPs formulated with P1D4 and P161F6 ionizable lipids in groups of 5 mice. A control group of 5 mice were injected with PBS. Balb/c mice were injected intravenously. The mice were sacrificed 18 hours after injection. Single cell splenocytes were prepared for FACS staining.
# spleen = experiment: In vivo Luciferase expression after injection of LNP-encapsulated modified mRNA, IVIS imaging; conditions: LNP delivering 10 mg modified mRNA encoding Luciferase; 18 hours post injection; Balb/c mice
# Description: as §1
# Balb/c mice were intraperitoneally injected with 10 mg modified mRNA encoding Luciferase, encapsulated by LNPs formulated with P1D4, P51C12, P161F6 ionizable lipids. To detect luminescence, the mice were subsequently injected with 6 mg Luciferin, a substrate of Luciferase and imaged by IVIS five minutes later.
SMILES,Avg. Encapsulation Efficiency (EE) % [1] [%],Avg. PDI [1],Avg. Size [1] [nm],"transfection of endogenous CD4, CD8, CD4/CD8 T cells and NK cells [2]",transfection of the spleen (Luciferase signal) (spleen)
"CCCCCCCCCCCCC(CCCCCCCCCC)CN(C(=O)CCC(C)C1CCC2C3CC(O)C4CC(O)CCC4(C)C3CCC12C)C(C(=O)NC12CC3CC(CC(C3)C1)C2)C1CCN(CC)CC1 (stereo not shown) [Lipid P161F6, N-(2-(((1s,3s)-adamantan-1-yl)amino)-1-(1-ethylpiperidin-4-yl)-2-oxoethyl)-N-(2-decyltetradecyl)-4-(3,6-dihydroxy-10,13-dimethylhexadecahydro-1H-cyclopenta[a]phenanthren-17-yl)pentanamide]",87.1,0.18,215,"could transfect endogenous CD4, CD8, CD4/CD8 T cells as well as NK cell",effectively transfected the spleen
"CCCCCCCCCCCCCC(=O)N(CC(CCCCCCCC)CCCCCCCCCC)C(C(=O)NCC(=O)OCC)C1CCN(CC)CC1 (stereo not shown) [Lipid P1D4, Ethyl (2-(1-ethylpiperidin-4-yl)-2-(N-(2-octyldodecyl)tetradecanamido)acetyl)glycinate]",92.7,0.17,170.4,"could transfect endogenous CD4, CD8, CD4/CD8 T cells as well as NK cell",effectively transfected the spleen
"CCCCCCCC/C=C\CCCCCCCC(=O)N(C(CCCCCCC)CCCCCCC)C(C(=O)NC1CCCCCC1)C1CCN(CC)CC1 (stereo not shown) [Lipid P149A1, N-(2-(cycloheptylamino)-1-(1-ethylpiperidin-4-yl)-2-oxoethyl)-N-(pentadecan-8-yl)oleamide]",92.9,0.10,219,,
"CCCCCCCCCCCCCC(=O)N(C(CCCCCCC)CCCCCCC)C(C(=O)NC1CCCCCC1)C1CCN(CC)CC1 (stereo not shown) [Lipid P38D1, N-(2-(cycloheptylamino)-1-(1-ethylpiperidin-4-yl)-2-oxoethyl)-N-(pentadecan-8-yl)tetradecanamide]",97.4,0.12,179.1,,
"CCCCCCCCCCCCCCCC(=O)N(C(CCCCCCCC)CCCCCCCC)C(C(=O)NC1=CCCCC1)C1CCN(CC)CC1 (stereo not shown) [Lipid P6A2, N-(2-(cyclohex-1-en-1-ylamino)-1-(1-ethylpiperidin-4-yl)-2-oxoethyl)-N-(heptadecan-9-yl)palmitamide]",90.4,0.12,190.7,,
"CCCCCCCCCCCCOC(=O)CCC(=O)N(C(CCCCCCCCC)CCCCCCCCC)C(C(=O)NC1CCCCCC1)C1CCN(CC)CC1 (stereo not shown) [Lipid P153C3, dodecyl 4-((2-(cycloheptylamino)-1-(1-ethylpiperidin-4-yl)-2-oxoethyl)(nonadecan-10-yl)amino)-4-oxobutanoate]",86.8,0.07,86.8,,
